Tests used:
[1] = tested on: bile canaliculi (BC) network; assay: BC network geometry (BC radius) from 3D reconstruction of CD13-stained fixed liver tissue sections; type: in vivo, mouse
Description: (§1) As controls, mice were administered 0.9% saline.
All steps were performed at room temperature.
Fixed tissue was imaged with a Zeiss laser scanning microscope 780 NLO using a 63×1.3 numerical aperture (NA) glycerol immersion objective (Zeiss), a Chameleon Ti-Sapphire 2-photon laser (780 nm), 488 and 561 laser lines and Gallium arsenide phosphide (GaAsp) detectors.
3D reconstructions of the BC network were performed on high-resolution IF image stacks of fixed liver tissue stained for the apical marker CD13 (voxel size: 0.28×0.28×0.3 μm, 70-80 μm in depth). A tile of 2×1 image stacks was stitched to cover an entire CV-PV axis. Images were processed, analyzed and reconstructed using the software MotionTracking as described in (Morales-Navarrete et al., 2015). In brief, images were segmented using a local thresholding algorithm (maximum entropy), segmented objects were corrected for artefacts using standard morphological operations (opening/closing) and the triangulation mesh of the segmented surfaces was generated by the cube marching algorithm. The active mesh was tuned to align the triangle mesh vertexes to the maximum gradient of fluorescence intensity in the original image. A representation of the skeletonized image was generated using a 3D graph describing the geometrical and topological features of the BC network. For the spatial analysis of BC radius, porosity and network density, the CV-PV axis was computationally divided into 20 equidistant zones based on the distance dof each position x from the CV (dCV) and PV (dPV):
Then, the average radius and porosity was determined per zone. For the radius, the minimal distance of each node of the central line of the BC network was quantified in the xy-plane. For the BC network density, the network length per tissue volume was calculated. For the tissue porosity, […]

[2] = tested on: bile flow in the BC network; assay: Bile velocity and apical CF transport by intravital microscopy (IVM) of CF(DA) transport with 3-compartment model; type: in vivo, mouse
Description: as §1
The objective was heated to 37° C.
Quantification of the CF intensity in the hepatocyte cytoplasm and BC from IVM movies was performed using the image analysis software MotionTracking. Following correction for shift, IVM movies contained 16-21 frames per stack, covering 15-20 μm in z. To avoid liver damage from photo-toxicity, IVM movies were acquired with minimum laser intensities resulting in low signal-to-noise ratio. […] Therefore, we used the modified Mean-Shift algorithm to separate the CF fluorescence from the background. The result of the background/foreground discrimination was checked manually. The BC were detected in three steps. First, the image was convolved with Laplacian of Gaussian. Second, pixels with an intensity >2 standard deviations of the local noise were defined as potential BC. The local noise was determined from the local intensity minimums in at least one of 4 discrete directions. Third, along the line of the local maximum intensity direction of a BC, pixels that co-localized with sharp intensity transitions between the cytoplasm and sinusoids were excluded from the BC compartment. For all compartments (cytoplasm, BC and background), the mean intensity was calculated. To avoid mixing of compartments from light scattering of bright objects (BC to cytoplasm and cytoplasm to background), the area within the radius of 2 pixels from the object border was excluded from the calculation.
The transport of CF(DA) from the blood into and through the biliary network was described in a mathematical model that considers 3 hepatic compartments: the blood (s), hepatocytes cytoplasm (c) and bile canaliculi (b) (see FIG. 2F). Dye propagation through these three compartments was modelled for three spatially distinct zones within the liver lobule: The CV, MD and PV zone as defined in FIG. 2C. The different zone geometries of the kite-shaped CV-PV axis were accounted for by introducing respective geometry factors. The model considers that only a fraction of the injected CFDA is delivered to the liver, whereas the rest is cleared by other tissues at rate κclear. The injection of CFDA into the blood circulation is described by Pulse(t). It is defined by the time point of injection start (τ1) and the injection duration (τ2) assuming that CFDA is injected with constant rate in time t>τ1 and <τ1+τ2. Both τ1 and τ2 were fitted by the model with boundary intervals 40-80 sec (τ1) and 20-60 sec (τ2). In the liver, the model considers that CFDA is taken up from the blood with a permeability coefficient Perm=3 sec^−1 (according to (Breeuwer et al., 1995), considering a mammalian plasma membrane thickness of 4 nm), converted into CF by cytoplasmic esterases with cleavage rate κcleav and secreted by apical transporters with transporter activity κpump. To account for the spatial heterogeneity of esterase and transporter levels within the CV-PV axis, the amounts of both esterases (qi) and apical transporters (q1i) were determined for each zone (i=cv, md, pv). The model further considers passive back flux of CF from the BC into the hepatocyte cytoplasm at rate κli. The bile canaliculi compartment of the three zones is connected, occurs unidirectional and sequential from the CV to the MD with transport rate
Bile flow velocity vi at the interfaces of the lobule zones was estimated from the volume flux rates
considering the size of the zone volumes V and zone boundaries Ai (i=cv, md, pv) as well as a CV-PV axis distance L of 229 μm: […]

[3] = tested on: phosphorylated myosin light chain (pMLC); assay: Western blot of phosphorylated myosin light chain in liver tissue of treated mice; type: in vivo; conditions: 20 mg/kg Fasudil for 1.5 h, mouse liver
Description: As controls, mice were administered 0.9% saline. […] Cell debris were removed by centrifugation for 10 min at 12 000×g at 4° C. and protein was denatured at 95° C. in presence of 100 mM dithiothreitol (DTT). A total of 10 μg protein was separated by sodium dodecyl sulfate polyacrylamide gel electrophoresis, and transferred onto a nitrocellulose membrane. Membranes were blocked and incubated with primary antibodies against glyceraldehyde 3-phosphate dehydrogenase (GAPDH, 1:2000) or phospho-myosin light chain (pMLC, 1:500) and HRP-conjugated secondary antibodies (1:10000) in 5% dry-milk, 10 mM Tris-HCl pH 8.0, 200 mM NaCl, 0.1% Tween20. Protein was detected using the enhanced chemiluminescence (ECL) detection kit (GE Healthcare, Buckinghamshire, UK) and chemiluminescence films (GE Healthcare, Buckinghamshire, UK) according to manufacturer's instructions. Plasma membrane contractility is determined by the cortical acto-myosin system ([…] et al., 2016; Tsukada and Phillips, 1993). […] Consequently, inhibition of acto-myosin contractility should affect biliary fluid dynamics. […] We next analyzed the BC network geometry on fixed liver tissue sections and found a dilation of BC in Fasudil-treated mice (FIG. 5B).

[4] = according to Breeuwer et al., 1995, considering a plasma membrane thickness of 4 nm; cited from earlier work
[5] = mouse, in vivo, iv
Description: Mouse anaesthesia was induced with 3-4% isoflurane/0.3% oxygen and maintained by i.p. injection of ketamine/xylazine throughout the experiment. Mice received 20 U of heparin dissolved in 0.9% (w/v) NaCl by i.p. injection to prevent ischemia of the liver during the course of imaging. To visualize hepatocyte nuclei, Hoechst 33258 dissolved in 0.9% (w/v) NaCl was administered retro-orbitally at a dose of 2 mg/kg and in a total volume of 50 μl. To expose the liver for imaging, the abdominal fur was removed using an electric shaver and a small transversal incision of 1 cm was made at the height of the sternum to expose the left lateral liver lobe using a surgical scissor and cauterizer. The mouse was positioned on the stage of an IX81 inverted confocal microscope equipped with a Fluoview 1000 scanning head (Olympus America) and a heat-adjustable UPLSAPO30X, 30×1.05 NA silicon oil objective (Olympus). The objective was heated to 37° C. To avoid compression of the liver lobe and to stabilize the tissue, the stage was designed with a small hole in the center into which the left lateral lobe was carefully placed. The residual volume of the hole was filled with a water based and transparent 1% carbomer gel (0.3 M Sorbitol, 1% (w/v) Carbomer 940, polymerized by addition of triethanolamine and adjusted to pH 7) to immobilize the organ and prevent the organ from drying out. The bottom of the hole was designed with a coverslide through which the organ was accessible for imaging. The animal body temperature was kept at 37° C. using a red lamp. Prior to imaging start, 18 mg/kg of 70 kDa Rhodaminedextran or 20 μl of Qtracker 655 vascular label dissolved in 0.9% (w/v) NaCl was injected retro-orbitally to identify the lobule orientation from the vascular flow pattern. To monitor the flux of CFDA in the liver, CFDA, dissolved in dimethyl sulfoxide (DMSO), was injected retro-orbitally at a dose of 0.2 mg/kg in a total volume of 50 μl. CFDA injection was performed slowly (approx. 30 sec) to avoid hydrodynamic effects and performed at 1 min after image acquisition start. […]

[6] = from the literature; cited from earlier work
[7] = APAP 150 mg/kg i.p., 2 h, IVM of CF(DA) transport

SMILES: O=S(=O)(c1cccc2cnccc12)N1CCCNCC1 [Fasudil]
- BC radius increase as compared to control mice, MD zone ([1]; Fasudil 20 mg/kg i.p., 1.5 h, MD zone, pvalue<0.0001): up to 12%
- BC radius increase as compared to control mice, PV zone ([1]; Fasudil 20 mg/kg i.p., 1.5 h, PV zone, pvalue<0.001): ≤ 7%
- extrapolated BC radius at x=L, at(L) ([1]; Fasudil-treated mice, apparent radius at portal outlet): 1.422 μm
- reduction of bile velocity across the CV-PV axis as compared to control mice ([2]; Fasudil 20 mg/kg i.p., 1.5 h, IVM of CF(DA) transport): 50-58%
- apical CF transport ([2]; Fasudil-treated mice, IVM): reduction
- apical secretion fluxes summed over the entire CV-PV axis, Jt ([2]; Fasudil-treated, t=500 sec): 0.0390 arbitrary intensity units per time
- apical secretion flux of CF, CV zone ([2]; Fasudil-treated, t=500 sec, CV zone): 0.0019 arbitrary intensity units per time
- apical secretion flux of CF, MD zone ([2]; Fasudil-treated, t=500 sec, MD zone): 0.0312 arbitrary intensity units per time
- apical secretion flux of CF, PV zone ([2]; Fasudil-treated, t=500 sec, PV zone): 0.0059 arbitrary intensity units per time
- phosphorylated myosin light chain (pMLC) protein levels [3]: reduction

SMILES: CC(=O)Oc1ccc2c(c1)Oc1cc(OC(C)=O)ccc1C21OC(=O)c2ccc(C(=O)O)cc21 [CFDA, 6-carboxyfluorecein-diacetate]
- permeability coefficient Perm for uptake from the blood [4]: 3 s⁻¹
- time until detectable in the hepatocyte cytoplasm [5]: within seconds

SMILES: CC(=O)Nc1ccc(O)cc1 [APAP, acetaminophen]
- dilation of BC, CV zone ([1]; APAP 150 mg/kg i.p., 2 h, immersion fixed, CV zone, pvalue<0.01): up to 20%
- dilation of BC, MD zone ([1]; APAP 150 mg/kg i.p., 2 h, immersion fixed, MD zone, pvalue<0.0001): ≤ 18%
- bile velocity in the peri-portal zone [2, 7]: remained almost unaffected
- measured increase in bile velocity in the CV and MD zones [2, 7]: 1.4-1.6 fold
- effects on osmolite secretion ([2]; APAP treatment): marginal
- maximum reported sub-toxic dose [6]: 150 mg/kg

SMILES: O=C(O)c1ccc2c(c1)C1(OC2=O)c2ccc(O)cc2Oc2cc(O)ccc21 [CF, 6-carboxyfluorescein]
- time until cleared from the system [5]: ~40 min
- time until visible in the BC network [5]: 3 to 5 min

From US20200054271A1, “COMPUTER-BASED LIVER MODEL” (priority 2017, published 2020)
